Laboratory results as given in PubChem BioAssay (NCI).
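Growth conditions: 96-well plates. Treatment: test compound, 48 hours, 5 concentrations. Analysis: linear interpolation between bracketing concentrations; unreached endpoints set to highest concentration. GI50 = concentration required for 50% inhibition of growth. At the TGI there is no net growth.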

Legend:
Assay in all cases: growth of human tumour cells (NCI), 48 h
786-0 renal = tested on: 786-0 renal
A498 renal = tested on: A498 renal
A549 NSCLC = tested on: A549 NSCLC
ACHN renal = tested on: ACHN renal
BT-549 breast = tested on: BT-549 breast
CAKI-1 renal = tested on: CAKI-1 renal
CCRF-CEM leukemia = tested on: CCRF-CEM leukemia
COLO 205 colon = tested on: COLO 205 colon
DU-145 prostate = tested on: DU-145 prostate
EKVX NSCLC = tested on: EKVX NSCLC
HCC-2998 colon = tested on: HCC-2998 colon
HCT-116 colon = tested on: HCT-116 colon
HCT-15 colon = tested on: HCT-15 colon
HL-60(TB) leukemia = tested on: HL-60(TB) leukemia
HOP-62 NSCLC = tested on: HOP-62 NSCLC
HOP-92 NSCLC = tested on: HOP-92 NSCLC
HS 578T breast = tested on: HS 578T breast
HT29 colon = tested on: HT29 colon
IGROV1 ovarian = tested on: IGROV1 ovarian
K-562 leukemia = tested on: K-562 leukemia
KM12 colon = tested on: KM12 colon
LOX IMVI melanoma = tested on: LOX IMVI melanoma
M14 melanoma = tested on: M14 melanoma
MALME-3M melanoma = tested on: MALME-3M melanoma
MCF7 breast = tested on: MCF7 breast
MDA-MB-231 breast = tested on: MDA-MB-231 breast
MDA-MB-435 = tested on: MDA-MB-435
MOLT-4 leukemia = tested on: MOLT-4 leukemia
NCI-H226 lung = tested on: NCI-H226 lung
NCI-H23 lung = tested on: NCI-H23 lung
NCI-H460 lung = tested on: NCI-H460 lung
NCI-H522 lung = tested on: NCI-H522 lung
NCI/ADR-RES ovarian = tested on: NCI/ADR-RES ovarian
OVCAR-3 ovarian = tested on: OVCAR-3 ovarian
OVCAR-4 ovarian = tested on: OVCAR-4 ovarian
OVCAR-5 ovarian = tested on: OVCAR-5 ovarian
OVCAR-8 ovarian = tested on: OVCAR-8 ovarian
PC-3 prostate = tested on: PC-3 prostate
RPMI-8226 leukemia = tested on: RPMI-8226 leukemia
RXF 393 renal = tested on: RXF 393 renal
SF-268 CNS = tested on: SF-268 CNS
SF-295 CNS = tested on: SF-295 CNS
SF-539 CNS = tested on: SF-539 CNS
SK-MEL-2 melanoma = tested on: SK-MEL-2 melanoma
SK-MEL-28 melanoma = tested on: SK-MEL-28 melanoma
SK-MEL-5 melanoma = tested on: SK-MEL-5 melanoma
SK-OV-3 ovarian = tested on: SK-OV-3 ovarian
SN12C renal = tested on: SN12C renal
SNB-75 CNS = tested on: SNB-75 CNS
SR leukemia = tested on: SR leukemia
SW-620 colon = tested on: SW-620 colon
T-47D breast = tested on: T-47D breast
TK-10 renal = tested on: TK-10 renal
U251 CNS = tested on: U251 CNS
UACC-62 melanoma = tested on: UACC-62 melanoma
UO-31 renal = tested on: UO-31 renal

Question: Which results are given for `CC/C=C/[C@@H]1C=C[C@@H]2CCC[C@H]2[C@@H]1CC[C@H](O)[C@H](C)N`?
Answer: GI50 (786-0 renal): 1720 nM; TGI (786-0 renal): 3090 nM; GI50 (A498 renal): 1620 nM; TGI (A498 renal): 5580 nM; GI50 (A549 NSCLC): 2260 nM; TGI (A549 NSCLC): 7050 nM; GI50 (ACHN renal): 1590 nM; TGI (ACHN renal): 2940 nM; GI50 (BT-549 breast): 2490 nM; TGI (BT-549 breast): 8030 nM; GI50 (CAKI-1 renal): 3730 nM; TGI (CAKI-1 renal): 20500 nM; GI50 (CCRF-CEM leukemia): 4650 nM; TGI (CCRF-CEM leukemia): 84300 nM; GI50 (COLO 205 colon): 1360 nM; TGI (COLO 205 colon): 2640 nM; GI50 (DU-145 prostate): 1930 nM; TGI (DU-145 prostate): 3980 nM; GI50 (EKVX NSCLC): 15200 nM; TGI (EKVX NSCLC): 31900 nM; GI50 (HCC-2998 colon): 1420 nM; TGI (HCC-2998 colon): 2740 nM; GI50 (HCT-116 colon): 1530 nM; TGI (HCT-116 colon): 2860 nM; GI50 (HCT-15 colon): 1540 nM; TGI (HCT-15 colon): 2870 nM; GI50 (HL-60(TB) leukemia): 1330 nM; TGI (HL-60(TB) leukemia): 2910 nM; GI50 (HOP-62 NSCLC): 1470 nM; TGI (HOP-62 NSCLC): 2800 nM; GI50 (HOP-92 NSCLC): 1410 nM; TGI (HOP-92 NSCLC): 3890 nM; GI50 (HS 578T breast): 1430 nM; TGI (HS 578T breast): 3150 nM; GI50 (HT29 colon): 1460 nM; TGI (HT29 colon): 2770 nM; GI50 (IGROV1 ovarian): 1500 nM; TGI (IGROV1 ovarian): 2920 nM; GI50 (K-562 leukemia): 1380 nM; TGI (K-562 leukemia): 2670 nM; GI50 (KM12 colon): 1700 nM; TGI (KM12 colon): 3070 nM; GI50 (LOX IMVI melanoma): 1580 nM; TGI (LOX IMVI melanoma): 2920 nM; GI50 (M14 melanoma): 1600 nM; TGI (M14 melanoma): 2980 nM; GI50 (MALME-3M melanoma): 1350 nM; TGI (MALME-3M melanoma): 2950 nM; GI50 (MCF7 breast): 1520 nM; TGI (MCF7 breast): 2850 nM; GI50 (MDA-MB-231 breast): 1780 nM; TGI (MDA-MB-231 breast): 3220 nM; GI50 (MDA-MB-435): 1700 nM; TGI (MDA-MB-435): 3270 nM; GI50 (MOLT-4 leukemia): 1720 nM; TGI (MOLT-4 leukemia): 3680 nM; GI50 (NCI-H226 lung): 11900 nM; TGI (NCI-H226 lung): 27600 nM; GI50 (NCI-H23 lung): 1780 nM; TGI (NCI-H23 lung): 3980 nM; GI50 (NCI-H460 lung): 1840 nM; TGI (NCI-H460 lung): 3460 nM; GI50 (NCI-H522 lung): 1820 nM; TGI (NCI-H522 lung): 3990 nM; GI50 (NCI/ADR-RES ovarian): 1970 nM; TGI (NCI/ADR-RES ovarian): 4400 nM; GI50 (OVCAR-3 ovarian): 1590 nM; TGI (OVCAR-3 ovarian): 2930 nM; GI50 (OVCAR-4 ovarian): 1830 nM; TGI (OVCAR-4 ovarian): 4880 nM; GI50 (OVCAR-5 ovarian): 1690 nM; TGI (OVCAR-5 ovarian): 3550 nM; GI50 (OVCAR-8 ovarian): 2300 nM; TGI (OVCAR-8 ovarian): 5540 nM; GI50 (PC-3 prostate): 2910 nM; TGI (PC-3 prostate): 12500 nM; GI50 (RPMI-8226 leukemia): 3070 nM; TGI (RPMI-8226 leukemia): 9790 nM; GI50 (RXF 393 renal): 1940 nM; TGI (RXF 393 renal): 4170 nM; GI50 (SF-268 CNS): 1710 nM; TGI (SF-268 CNS): 3420 nM; GI50 (SF-295 CNS): 1750 nM; TGI (SF-295 CNS): 3900 nM; GI50 (SF-539 CNS): 1670 nM; TGI (SF-539 CNS): 3030 nM; GI50 (SK-MEL-2 melanoma): 2110 nM; TGI (SK-MEL-2 melanoma): 4730 nM; GI50 (SK-MEL-28 melanoma): 1660 nM; TGI (SK-MEL-28 melanoma): 3010 nM; GI50 (SK-MEL-5 melanoma): 1690 nM; TGI (SK-MEL-5 melanoma): 3160 nM; GI50 (SK-OV-3 ovarian): 1690 nM; TGI (SK-OV-3 ovarian): 4150 nM; GI50 (SN12C renal): 4250 nM; TGI (SN12C renal): 18600 nM; GI50 (SNB-75 CNS): 538 nM; TGI (SNB-75 CNS): 5230 nM; GI50 (SR leukemia): 1390 nM; TGI (SR leukemia): 3000 nM; GI50 (SW-620 colon): 1640 nM; TGI (SW-620 colon): 3000 nM; GI50 (T-47D breast): 1520 nM; TGI (T-47D breast): 3300 nM; GI50 (TK-10 renal): 1360 nM; TGI (TK-10 renal): 2680 nM; GI50 (U251 CNS): 1530 nM; TGI (U251 CNS): 2860 nM; GI50 (UACC-62 melanoma): 1610 nM; TGI (UACC-62 melanoma): 2960 nM; GI50 (UO-31 renal): 1770 nM; TGI (UO-31 renal): 4910 nM
